From patent US9132164B2, “Pharmaceutical compositions comprising angiotensin-(1-9), derivatives thereof, or a vector expressing ACE2, useful for treating cardiovascular, pulmonary, cerebral, and/or renal remodeling” (PONTIFICIA UNIVERSIDAD CATOLICA DE CHILE, priority 2008, dated 2015)
“Also recorded” adds a separate entry of the source. No end group written: not given here.

Experiments:
[1] = tested on: Neonatal Sprague-Dawly rat cardiomyocytes; assay: Hypertrophy of cultured cardiomyocytes induced by norepinephrine or IGF-1; type: cell-based; settings: co-addition of 10 or 100 μM
Experimental: Neonatal Sprague-Dawly rat cardiomyocytes were isolated as described by (Foncea et al, J. Biol. Chem. 272:19115-24, 1997). Every study is in accordance with the guide for the care and use of laboratory animals Published by “U.S. National Institutes of Health” (NIH publication No 85-23, revised 1985) and was approved by our Institutional Ethics Committee. Cell cultures were >95% pure. Cardiomyocytes were plated at 70% final density in gelatin coated plates and kept at 37° C. in a 5% CO2/95% air moisturized atmosphere for 24 h in DMEM/M199 (4:1) with 10% bovine fetal serum and 5% calf serum. […]
Cells were grown over slides and were incubated in a buffer conferring stability to the cytoskeleton (10 mM MES pH 6.0, 150 mM NaCl, 5 mM EDTA, 3% sucrose, 5 mM MgCl2) for 5 min. Then, cells were fixed and permeabilized using methanol for 10 min. Non specific binding sites were blocked for 1 h with phosphate-buffered saline (PBS) supplemented with 3% bovine serum albumin. […] Cellular staining was evaluated in a confocal microscope (Carl Zeiss Axiovert 135, LSM Microsystems). Cardiomyocyte size was determined in cells fixed with 4% paraformaldehyde for 10 min and permeabilized with methanol for 10 min. […] The size of at least 100 cells from randomly selected fields was determined using Image J (NIH) software. […]

[2] = tested on: left ventricle of infarcted rats; assay: ANF mRNA (RT-PCR) and β-MHC protein (Western blot) in left ventricle of infarcted rats; type: in vivo, Sprague Dawley rats; settings: two weeks via osmotic mini-pumps, p<0.01
Experimental: (§1) For studies with angiotensin-(1-9) 28 rats were randomly distributed into two groups and underwent a sham surgery (n=8) or infarction following left coronary artery ligation (n=20). The infarcted rats were randomized to receive the either the carrier, angiotensin-(1-9) (463 ng/kg of body weight for 14 days) or angiotensin-(1-9) plus A779 (463 ng of angiotensin-(1-9)/kg of body weight/min and 100 ng of A779/kg/min for 14 days) by means of osmotic mini-pumps (ALZET) implanted into the jugular under sedation with ketamine-HCl/xilazine (35/7 mg/kg intraperitoneal, respectively).
(§2) The extent of left ventricular hypertrophy was calculated by the relationship among left ventricular weight (LVW), body weight (BW), mRNA relative levels of the auricular natriuretic factor (ANF), left ventricular protein content (LVP), and protein levels of β-myosinheavy chain (β-MHC) as described in (Ocaranza et al, Hypertension 48:572-8, 2006).
In animal models as described in example 1, the heart was removed and RNA was purified according to the procedure described in example 3. Later, the amount of ANF mRNA was determined by reverse transcription followed by polymerization chain reaction (RT-PCR) (see example 3). […] Panel B) illustrates RT-PCRs quantification. **p<0.01 vs sham; ^##p<0.01 vs MI. […]

[3] = tested on: rats with myocardial infarction (left coronary artery ligation); assay: Effects of angiotensin-(1-9) administration on hemodynamic parameters and left ventricle weight in infarcted rats; type: in vivo, Sprague Dawley rats; settings: infarcted rats (MI), osmotic mini-pump 14 days, average ± SEM
Experimental: as §1
Systolic blood pressure (SBP) was determined by using the “tail-cuff” method by investigators who were blind to the treatment group. Left ventricle function was determined by transthoracic bidimensional echocardiography using a Sonos 5000 equipped with a 5 to 12 MHz sectorial electronic ultraband S12 Philips transducer. The following echocardiographic parameters were determined: left ventricular end-systolic diameter (LVESD), left ventricular end diastolic diameter (LVEDD), left ventricular fractional shortening (LVFS), left ventricular anterior wall thickness (LVAWT), and left ventricular posterior wall thickness (LLVWT).
as §2

[4] = tested on: heart cardiomyocytes of infarcted rats; assay: Cardiomyocyte area and perimeter, cardiac tissue morphometry of infarcted rats; type: in vivo, Sprague Dawley rats; settings: two weeks via osmotic mini-pumps, p<0.01
Experimental: as §1
Heart mid-ventricle transverse slices (10 μm) were embedded in paraffin, stained with hematoxylin and eosin, and were examined by light microcopy (×20). The size of cardiomyocytes was determined as described by Nakamura et al (Circulation 98:794-9, 1998). Briefly, cell images visualized on a video recorded attached to the microscope were projected in a monitor and they were plotted. The area and perimeter were determined using Image J. software. […] At least 70 cells per animal were measured.
In animal models as described in example 1, heart was removed, histological cuts were made and a morphologic and morphometric analysis was performed on cardiac tissue according to the procedure described in example 3. […] In panel B), quantification is illustrated. **p<0.01 vs sham; ^##p<0.01 vs MI.

[5] = Plasma angiotensin levels in infarcted rats treated with angiotensin-(1-9) with or without A779; type: in vivo, Sprague Dawley rats; settings: with vs without A779, p<0.01
Experimental: as §1
Plasma angiotensin and bradykinin levels were determined as described by (Ocaranza et al, Hypertension 48:572-8, 2006; Ocaranza et al, Life Sci. 78:1535-42, 2005; Campbell et al, J. Mol. Cell. Cardiol. 27:1545-60, 1995). Briefly, rats were anesthetized with a combination of ketamin (125 mg/kg) and xilazin (12.5 mg/kg) administered via intraperitoneal injection. […] Plasmas were stored at −80° C. until their extraction using C18 Sep-Pak cartridges, and peptides were acetylated. Acetylated angiotensin II, angiotensin I, angiotensin-(1-7), angiotensin-(1-9), bradykinin-(1-7) and bradykinin-(1-9) were separated by high performance liquid chromatography (HPLC) and were detected by radioimmunoassay.

Question: For DRVYIHPFH [angiotensin-(1-9)], which “increments in cardiomyocyte areas induced by IGF-1” value ([1]; IGF-1 10 nM) is on record?
Answer: significantly prevented

Question: And the “increments in cardiomyocyte areas induced by NE” value ([1]; NE 10 μM)?
Answer: significantly prevented

Question: And the “ANF mRNA levels, reduction compared with infarcted rats” value ([2]; RT-PCR)?
Answer: 81%

Question: And the “β-MHC protein levels in left ventricle, decrease compared with infarcted rats” value ([2]; Western blot)?
Answer: 48%

Question: What about the CPVI [3] of the same sequence?
Answer: 8.0 ± 0.3 mg

Question: What about the FC [3] of the same sequence?
Answer: without observing changes

Question: And the LVW [3]?
Answer: significant reduction

Question: What about the LVW/BW [3] of the same sequence?
Answer: 310 ± 16 MV/100 g BW

Question: And the SBP [3]?
Answer: without observing changes; also recorded: does not alter

Question: And the FC ([3]; listed as Ang-(1-9))?
Answer: 259 ± 14 beats/min

Question: And the LVW ([3]; listed as Ang-(1-9))?
Answer: 810 ± 7 mg

Question: What about the SBP ([3]; listed as Ang-(1-9)) of the same sequence?
Answer: 112 ± 2 mm Hg

Question: And the “cardiomyocyte cellular area increment compared with infarcted rats” value [4]?
Answer: prevented cellular area increment

Question: What about the “cardiomyocyte perimeter, decrease with regard to infarcted rats” value [4] of the same sequence?
Answer: 31%

Question: And the “plasma angiotensin-(1-9) levels” value [5]?
Answer: 6.8±0.8 fmols/g
